# Publication PMC6767265, “Cytotoxicity and Apoptosis Induction of Coumarins and Carbazole Alkaloids from Clausena Harmandiana” (Molecules, 2019)
# Values joined by “and” are separate entries in the source; they are usually repeats but may differ in a detail not shown here. Equal values may be shown once. Marks after values point to notes of the source that are not given here.
# Columns and labels:
# [1] = system: noncancerous African green monkey kidney epithelial cell line (Vero); test: Cell viability assay (neutral red), Vero; format: cell-based; design: key to IC50 Vero: inactive: Inactive means cell viability percentage was >50% at the maximum concentration used (>100 µM for the compound or >100 µg/mL for the extract); conditions: 24 h, inactive = viability >50% at >100 µM
# Experimental: (§1) The human lung adenocarcinoma cell line (SK-LU-1), human colon carcinoma cell line (HCT116), human hepatocellular carcinoma cell line (HepG2) and noncancerous African green monkey kidney epithelial cell line (Vero) were cultured in Dulbecco’s modified Eagle’s medium (DMEM) supplemented with 10% fetal bovine serum, 100 IU/mL penicillin and […] streptomycin. Cells were incubated at 37 °C with 95% air and 5% CO2 until they reached approximately 80% confluence before use.
# (§2) Cell viability assay was assessed by neutral red (NR). Briefly, cells at a density of 3 × 10^4 cells/well were seeded in 96-wells plate and incubated for 24 h. The sample at concentration, ranging from 10 to 500 µM, were added and incubated for 24 h. After incubation time, cells were washed with PBS. NR reagent (50 µg/mL) was added to each well and incubated for another 2 h. After that, cells were washed with PBS and lyzed with 0.33% HCl in isopropanol. Cisplatin was used as a positive control. The absorbance of NR was detected using microplate reader (Tecan, Lyon, France) at 520 nm. The percentage of cell viability was calculated vis-à-vis the untreated cells and cytotoxicity was expressed as the inhibition concentration at 50% (IC50). The final DMSO concentration was not exceed 0.1%v/v to lessen the cytotoxicity (<10%).
# [2] = system: human lung adenocarcinoma cell line (SK-LU-1); test: Cell viability assay (neutral red), SK-LU-1; format: cell-based; design: key to IC50 SK-LU-1: inactive: Inactive means cell viability percentage was >50% at the maximum concentration used (>100 µM for the compound or >100 µg/mL for the extract); conditions: for IC50 SK-LU-1 / IC50: 24 h, neutral red, inactive = viability >50% at >100 µM; for Selectivity Index SK-LU-1: cancer cells over noncancerous Vero cells
# Experimental: as §1
# as §2, with “The sample at concentration, ranging from 10 to 500 µM, were added and incubated for 24 h.” left out
# [3] = DPPH radical scavenging assay; format: biochemical; conditions: for DPPH Assay IC50 / IC50: 30 min in the dark, absorbance 517 nm; for DPPH radical scavenging activity classification: classified from IC50 in µg/mL
# Experimental: The 2,2–diphenyl–1–picrylhydrazyl (DPPH) radical scavenging assay was conducted as per the previous method. Briefly, the stock solutions of 10 mM DPPH was prepared in methanol. The DPPH was mixed with samples (100 µL each) at various concentrations (1−500 µM) in 96 wells plate and incubated for 30 min in a dark condition. The absorbance of DPPH radical was measured at 517 nm using a microplate reader (Tecan, Lyon, France). Trolox was used as a positive control. The half maximum inhibitory concentration (IC50 value) was calculated from the plot of percentage of DDPH radical inhibition versus concentration of samples using the following formula: % DPPH radical inhibition = [(Ab − As)/Ab] × 100,(1) where Ab = absorbance of the reagent blank, and As = absorbance of the sample. Each experiment was done in five replications and results are expressed as average values.
# [4] = Ferric reducing antioxidant power (FRAP) assay; format: biochemical; conditions: 100 µM compound
# Experimental: FRAP assay was performed following the pervious study with slight modification. FRAP reagent was prepared by mixing 300 mM acetate buffer (pH 3.6), 20 mM ferric chloride solution and 10 mM TPTZ solution in the ratio of 10:1:1 and incubated at 37 °C for 30 min. Then, 150 µL of FRAP reagent was added with 50 µL of the sample (100 µM of isolated compounds or 100 µg/mL of the CH2Cl2 crude extract) in each well of the 96-wells plate. The absorbance was measured at 595 nm using microplate reader (Tecan, Lyon, France). Trolox was used as a positive control. The FRAP value was calculated from the linear equation between the absorbance and ferrous sulfate standard curves (y = 0.0548x + 0.0213, R^2 = 0.9989) and expressed as µM of ferrous sulfate equivalents.
# [5] = system: human hepatocellular carcinoma cell line (HepG2); test: Cell viability assay (neutral red), HepG2; format: cell-based; conditions: for IC50: 24 h, neutral red; for Selectivity Index HepG2: cancer cells over noncancerous Vero cells
# Experimental: as §1, §2
# [6] = system: human colon carcinoma cell line (HCT116); test: Cell viability assay (neutral red), HCT116; format: cell-based; design: key to IC50 HCT116: inactive: Inactive means cell viability percentage was >50% at the maximum concentration used (>100 µM for the compound or >100 µg/mL for the extract); conditions: for IC50 HCT116 / IC50: 24 h, neutral red, inactive = viability >50% at >100 µM; for Selectivity Index HCT116: cancer cells over noncancerous Vero cells
# Experimental: as §1
# as §2, with “The sample at concentration, ranging from 10 to 500 µM, were added and incubated for 24 h.” left out
# [7] = system: HepG2 cells; test: Mode of cell death by Annexin V-FITC/PI staining, flow cytometry; format: cell-based, human
# Text: In this study, double staining of cells by Annexin V-FITC/propidium iodide (PI) was used to differentiate apoptosis from necrosis. The stages of apoptosis can be distinguished from necrotic cell death by flow cytometry using Annexin V-FITC/PI double staining of HepG2 cells. During the early stages of apoptosis, the phosphatidylserine comprising the cell membrane will externalize to be exposed to the surface of apoptotic cells and bind with Annexin V-FITC, showing a cell dot plot in Quadrant 4. The cell dot plot is positively stained with Annexin V-FITC but negatively stained with PI (+/−). When cells are damaged or undergo a late state of apoptosis, cells will lose their membrane integrity, including nuclear membrane integrity, so that PI can pass through the nuclear membrane, showing a cell dot plot in Quadrant 2. […] During cell undergo necrotic cell death, cells are stained and appear in Quadrant 1 (−/+). Normal cells are not stained and appear in Quadrant 3 (−/−). The total apoptotic cell death percentage was counted from the percentage of cells undergoing an early state and late state of apoptosis gathering from Quadrants 4 and 2, while the necrotic cell death percentage was counted from Quadrant 1, as shown in Figure 2.
# The Annexin V-FITC and PI apoptosis assay kit (BioLegend, San Diego, CA, USA) was used to determine mode of cell death as per previous report. The HepG2 cells (8 × 10^5 cell/mL) were seeded in a 24-well plate and incubated for 24 h. The compounds at a concentration of 1 x IC50 and 2 x IC50 were added and incubated for 12 and 24 h. After that, cells were washed with PBS and cold BioLegend’s cell staining buffer followed by staining with Annexin V-FITC and PI and cell were incubated in the dark for 15 min. The cells were analyzed by flow cytometry (BD FACSCanto II, BD Biosciences, San Jose, CA, USA) and the percentage of cells in different populations were calculated with FACSDiva software.
SMILES,IC50 Vero [1],Selectivity Index SK-LU-1 [2],DPPH Assay IC50 [3],IC50 [3] [µM],DPPH radical scavenging activity classification [3],FRAP Value [4],"IC50 ([5]; Homo sapiens, HepG2) [µM]",Selectivity Index HepG2 [5],Selectivity Index HCT116 [6],"IC50 ([2]; Homo sapiens, SK-LU-1) [µM]","IC50 ([6]; Homo sapiens, HCT-116) [µM]",also measured
"COc1ccc2c(c1)[nH]c1c(CC=C(C)C)c(O)c(C=O)cc12 [7-Methoxyheptaphylline (7), 7-methoxyheptaphylline]",inactive^bB,1.0),96.8 ± 1.1^g µg/mL,313 ± 3.4,low radical scavenger,1.4 ± 0.1^g µM FeSO4 Equivalents,65.5 ± 2.7,(1.5),(1.0),–,–,IC50 SK-LU-1 [2]: inactive^bF; FRAP Value ([4]; listed as 7-methoxyheptaphylline): 1.4 µM FeSO4 Equivalents; IC50 HCT116 [6]: inactive^bE
"COc1ccc2c(c1)[nH]c1cc(O)c(C=O)cc12 [7-Methoxymukonal (5), 7-methoxymukonal]",inactive^bB,(1.0),6.8 ± 0.5^b µg/mL,26.2 ± 2,moderate radical scavenger,47.0 ± 0.6^a µM FeSO4 Equivalents,82.6 ± 2.8,(1.2),(1.0),–,–,IC50 SK-LU-1 [2]: inactive^bF; FRAP Value ([4]; listed as 7-methoxymukonal): 47.0 µM FeSO4 Equivalents; IC50 HCT116 [6]: inactive^bE
"N.N.[Cl][Pt][Cl] [Cisplatin, reference compound]",inactive^dB,(2.3),–,–,–,–,–,(4.6),(1.4),–,–,IC50 [2]: 42.7 ± 1.9 µM; IC50 [5]: 21.8 ± 3 µM; IC50 [6]: 71.9 ± 2.7 µM
"C=CC(C)(C)c1cc2c(O)c3c(c(C(C)(C)C=C)c2oc1=O)OC(C)(C)C=C3 [Clausarin (2), clausarin]",–,(11.3),2.3 ± 0.3^a µg/mL,6 ± 0.8,high radical scavenger,45.2 ± 1.0^b µM FeSO4 Equivalents,17.6 ± 2.1,(4.4),(1.7),6.9 ± 1.6,44.9 ± 1.4,"apoptotic cell death percentage (total, Quadrants 4 and 2) ([7]; HepG2, 1 × IC50, 12 h): 44.0 ± 1.2%; necrotic cell death percentage (Q1, Annexin V-FITC/PI −/+) ([7]; HepG2, 1 × IC50, 12 h): 6.8 ± 1.4%; necrotic cell death percentage (Q1, Annexin V-FITC/PI −/+) ([7]; HepG2, 2 × IC50, 12 h): 27.4 ± 3.8%; IC50 ([1]; Chlorocebus sabaeus, Vero): 78.2 ± 3 µM; FRAP Value ([4]; listed as clausarin): 45.2 ± 1.0 µM FeSO4 Equivalents and 45.2 µM FeSO4 Equivalents"
"C=CC(C)(C)c1c2c(c(OC)c3ccc(=O)oc13)C=CC(C)(C)O2 [Dentatin (3), dentatin]",inactive^cB,(2.2),>500^h µg/mL,> 500,no activity,4.7 ± 0.1^f µM FeSO4 Equivalents,47.6 ± 2.8,(2.1),(1.4),45.4 ± 2.5,73.9 ± 2.5,FRAP Value ([4]; listed as dentatin): 4.7 µM FeSO4 Equivalents
"CC(C)=CCc1c(O)c(C=O)cc2c1[nH]c1ccccc12 [Heptaphylline (1), heptaphylline]",inactive^dB,(1.2),93.5 ± 2.2^f µg/mL,335 ± 7.8,low radical scavenger,1.0 ± 0.0^g µM FeSO4 Equivalents,37.8 ± 2.6,(2.6),(1.3),83.1 ± 2.6,74.7 ± 2.1,FRAP Value ([4]; listed as heptaphylline): 1.0 µM FeSO4 Equivalents
"C=CC(C)(C)c1c2c(c(O)c3ccc(=O)oc13)C=CC(C)(C)O2 [Nordentatin (6), nordentatin]",inactive^cB,(1.5),12.0 ± 0.8^c µg/mL,38.3 ± 2.5,moderate radical scavenger,9.0 ± 1.1^e µM FeSO4 Equivalents,29.9 ± 3.2,(3.3),(1.6),67.3 ± 1.2,63.6 ± 2.3,FRAP Value ([4]; listed as nordentatin): 9.0 µM FeSO4 Equivalents
"Cc1c(C)c2c(c(C)c1O)CCC(C)(C(=O)O)O2 (stereo not drawn) [Trolox, 6-hydroxy-2,5,7,8-tetramethylchroman-2-carboxylic acid, reference compound]",–,–,4.2 ± 0.1^a µg/mL,16.8 ± 0.6,moderate radical scavenger,37.7 ± 0.8^c µM FeSO4 Equivalents,–,–,–,–,–,FRAP Value ([4]; listed as trolox): 37.7 µM FeSO4 Equivalents
